Reference: ChEMBL document CHEMBL3044741, “Synthesis of novel biologically active methylene derivatives of sydnones” (Med Chem Res, 2013)
≈ marks a conversion by molar mass, not a printed value.

Columns and labels:
Assay type in all cases: functional
[1] = system: Streptococcus pyogenes; experiment: Antibacterial activity against Streptococcus pyogenes MTCC 442 at 250 ug/ml after 24 hrs by Kirby-Bauer method; details: MTCC 442, 24 h, read-out: IZ
[2] = system: NCI-H460; experiment: Cytotoxicity against human NCI-H460 assessed as cell growth at high concentration
[3] = system: MDA-MB-468; experiment: Cytotoxicity against human MDA-MB-468 assessed as cell growth at high concentration
[4] = system: HL-60(TB); experiment: Cytotoxicity against human HL-60(TB) assessed as cell growth at high concentration
[5] = system: IGROV-1; experiment: Cytotoxicity against human IGROV1 assessed as cell growth at high concentration
[6] = system: HCT-15; experiment: Cytotoxicity against human HCT15 assessed as cell growth at high concentration
[7] = system: HCT-116; experiment: Cytotoxicity against human HCT116 assessed as cell growth at high concentration
[8] = system: BT-549; experiment: Cytotoxicity against human BT549 assessed as cell growth at high concentration
[9] = system: Malme-3M; experiment: Cytotoxicity against human MALME-3M assessed as cell growth at high concentration
[10] = system: Hs-578T; experiment: Cytotoxicity against human Hs 578T assessed as cell growth at high concentration
[11] = system: TK-10; experiment: Cytotoxicity against human TK10 assessed as cell growth at high concentration
[12] = system: Aspergillus niger; experiment: Antifungal activity against Aspergillus niger MTCC 282 at 250 ug/ml after 74 hrs by Kirby-Bauer method; details: MTCC 282, 74 h, read-out: IZ
[13] = system: Escherichia coli; experiment: Antibacterial activity against Escherichia coli MTCC 443 at 250 ug/ml after 24 hrs by Kirby-Bauer method; details: MTCC 443, 24 h, read-out: IZ
[14] = system: SK-OV-3; experiment: Cytotoxicity against human SKOV3 assessed as cell growth at high concentration
[15] = system: CAKI-1; experiment: Cytotoxicity against human Caki1 assessed as cell growth at high concentration
[16] = system: MOLT-4; experiment: Cytotoxicity against human MOLT4 assessed as cell growth at high concentration
[17] = system: SNB-75; experiment: Cytotoxicity against human SNB75 assessed as cell growth at high concentration
[18] = system: MCF7; experiment: Cytotoxicity against human MCF7 assessed as cell growth at high concentration
[19] = system: SK-MEL-5; experiment: Cytotoxicity against human SK-MEL-5 assessed as cell growth at high concentration
[20] = system: UACC-62; experiment: Cytotoxicity against human UACC62 assessed as cell growth at high concentration
[21] = system: HCC 2998; experiment: Cytotoxicity against human HCC2998 assessed as cell growth at high concentration
[22] = system: Candida albicans; experiment: Antifungal activity against Candida albicans MTCC 227 at 250 ug/ml after 74 hrs by Kirby-Bauer method; details: MTCC 227, 74 h, read-out: IZ
[23] = system: SK-MEL-2; experiment: Cytotoxicity against human SK-MEL-2 assessed as cell growth at high concentration
[24] = system: DU-145; experiment: Cytotoxicity against human DU145 assessed as cell growth at high concentration
[25] = system: OVCAR-4; experiment: Cytotoxicity against human OVCAR4 assessed as cell growth at high concentration
[26] = system: Aspergillus clavatus; experiment: Antifungal activity against Aspergillus clavatus MTCC 1323
[27] = system: A498; experiment: Cytotoxicity against human A498 assessed as cell growth at high concentration
[28] = system: UO-31; experiment: Cytotoxicity against human UO31 assessed as cell growth at high concentration
[29] = system: OVCAR-8; experiment: Cytotoxicity against human OVCAR8 assessed as cell growth at high concentration
[30] = system: Staphylococcus aureus; experiment: Antibacterial activity against Staphylococcus aureus MTCC 96 after 24 hrs by broth dilution method; details: MTCC 96, 24 h
[31] = system: Streptococcus pyogenes; experiment: Antibacterial activity against Streptococcus pyogenes MTCC 442 after 24 hrs by broth dilution method; details: MTCC 442, 24 h
[32] = system: K562; experiment: Cytotoxicity against human K562 assessed as cell growth at high concentration
[33] = system: M14; experiment: Cytotoxicity against human M14 assessed as cell growth at high concentration
[34] = system: SF-539; experiment: Cytotoxicity against human SF539 assessed as cell growth at high concentration
[35] = system: PC-3; experiment: Cytotoxicity against human PC3 assessed as cell growth at high concentration
[36] = system: HT-29; experiment: Cytotoxicity against human HT-29 assessed as cell growth at high concentration
[37] = Cytotoxicity against human NCI-ADR-RES assessed as cell growth at high concentration
[38] = system: SF-268; experiment: Cytotoxicity against human SF268 assessed as cell growth at high concentration
[39] = system: UACC-257; experiment: Cytotoxicity against human UACC257 assessed as cell growth at high concentration
[40] = system: Aspergillus niger; experiment: Antifungal activity against Aspergillus niger MTCC 282
[41] = system: SNB-19; experiment: Cytotoxicity against human SNB19 assessed as cell growth at high concentration
[42] = system: CCRF-CEM; experiment: Cytotoxicity against human CCRF-CEM assessed as cell growth at high concentration
[43] = system: RXF 393; experiment: Cytotoxicity against human RXF393 assessed as cell growth at high concentration
[44] = system: Pseudomonas aeruginosa; experiment: Antibacterial activity against Pseudomonas aeruginosa MTCC 424 at 250 ug/ml after 24 hrs by Kirby-Bauer method; details: MTCC 424, 24 h, read-out: IZ
[45] = system: COLO 205; experiment: Cytotoxicity against human COLO205 assessed as cell growth at high concentration
[46] = system: NCI-H322M; experiment: Cytotoxicity against human NCI-H322M assessed as cell growth at high concentration
[47] = system: HOP-62; experiment: Cytotoxicity against human HOP62 assessed as cell growth at high concentration
[48] = system: LOX IMVI; experiment: Cytotoxicity against human LOXIMVI assessed as cell growth at high concentration
[49] = system: NCI-H23; experiment: Cytotoxicity against human NCI-H23 assessed as cell growth at high concentration
[50] = system: A549; experiment: Cytotoxicity against human A549 assessed as cell growth at high concentration
[51] = system: NCI-H226; experiment: Cytotoxicity against human NCI-H226 assessed as cell growth at high concentration
[52] = system: SN12C; experiment: Cytotoxicity against human SN12C assessed as cell growth at high concentration
[53] = system: SF-295; experiment: Cytotoxicity against human SF295 assessed as cell growth at high concentration
[54] = system: 786-0; experiment: Cytotoxicity against human 786-0 assessed as cell growth at high concentration
[55] = system: T47D; experiment: Cytotoxicity against human T47D assessed as cell growth at high concentration
[56] = system: KM12; experiment: Cytotoxicity against human KM12 assessed as cell growth at high concentration
[57] = system: SW-620; experiment: Cytotoxicity against human SW620 assessed as cell growth at high concentration
[58] = system: OVCAR-3; experiment: Cytotoxicity against human OVCAR3 assessed as cell growth at high concentration
[59] = system: MDA-MB-231; experiment: Cytotoxicity against human MDA-MB-231 assessed as cell growth at high concentration
[60] = system: SK-MEL-28; experiment: Cytotoxicity against human SK-MEL-28 assessed as cell growth at high concentration
[61] = system: Candida albicans; experiment: Antifungal activity against Candida albicans MTCC 227
[62] = system: NCI-H522; experiment: Cytotoxicity against human NCI-H522 assessed as cell growth at high concentration
[63] = system: U-251; experiment: Cytotoxicity against human U251 assessed as cell growth at high concentration
[64] = system: SR; experiment: Cytotoxicity against human SR assessed as cell growth at high concentration
[65] = system: RPMI-8226; experiment: Cytotoxicity against human RPMI8226 assessed as cell growth at high concentration
[66] = system: Escherichia coli; experiment: Antibacterial activity against Escherichia coli MTCC 443 after 24 hrs by broth dilution method; details: MTCC 443, 24 h
[67] = system: Pseudomonas aeruginosa; experiment: Antibacterial activity against Pseudomonas aeruginosa MTCC 424 after 24 hrs by broth dilution method; details: MTCC 424, 24 h
[68] = system: EKVX; experiment: Cytotoxicity against human EKVX assessed as cell growth at high concentration
[69] = system: Aspergillus clavatus; experiment: Antifungal activity against Aspergillus clavatus MTCC 1323 at 250 ug/ml after 74 hrs by Kirby-Bauer method; details: MTCC 1323, 74 h, read-out: IZ
[70] = system: Staphylococcus aureus; experiment: Antibacterial activity against Staphylococcus aureus MTCC 96 at 250 ug/ml after 24 hrs by Kirby-Bauer method; details: MTCC 96, 24 h, read-out: IZ
[71] = system: MDA-MB-435; experiment: Cytotoxicity against human MDA-MB-435 assessed as cell growth at high concentration

[O-]c1on[n+](-c2ccc(Cc3ccc(-[n+]4noc([O-])c4CN4CCOCC4)cc3)cc2)c1CN1CCOCC1
zone of inhibition at 250 µg/mL [1]: 19 mm | Activity [2]: 82.89% | Activity [3]: 11.42% | Activity [4]: 86.39% | Activity [5]: 62.3% | Activity [6]: 78.57% | Activity [7]: 63.75% | Activity [8]: 60.72% | Activity [9]: 65.64% | Activity [10]: 64.02% | Activity [11]: 74.48% | zone of inhibition at 250 µg/mL [12]: 23 mm | zone of inhibition at 250 µg/mL [13]: 18 mm | Activity [14]: 87.98% | Activity [15]: 49.27% | Activity [16]: 68.41% | Activity [17]: 72.63% | Activity [18]: 45.59% | Activity [19]: 53.16% | Activity [20]: 53.38% | Activity [21]: 80.48% | zone of inhibition at 250 µg/mL [22]: 23 mm | Activity [23]: 78.61% | Activity [24]: 100.94% | Activity [25]: 53.91% | MIC [26]: 500 µg/mL (≈ 935 µM) | Activity [27]: 53.74% | Activity [28]: 44.31% | Activity [29]: 80.93% | MIC [30]: 100 µg/mL (≈ 187 µM) | MIC [31]: 250 µg/mL (≈ 468 µM) | Activity [32]: 26.39% | Activity [33]: 69.54% | Activity [34]: 77.5% | Activity [35]: 56.45% | Activity [36]: 89.7% | Activity [37]: 63.42% | Activity [38]: 78.33% | Activity [39]: 75.14% | MIC [40]: 250 µg/mL (≈ 468 µM) | Activity [41]: 86.48% | Activity [42]: 63.93% | Activity [43]: 72.21% | zone of inhibition at 250 µg/mL [44]: 21 mm | Activity [45]: 99.94% | Activity [46]: 82.54% | Activity [47]: 77% | Activity [48]: 65.03% | Activity [49]: 62.15% | Activity [50]: 69.06% | Activity [51]: 85.46% | Activity [52]: 80.32% | Activity [53]: 44.14% | Activity [54]: 73.96% | Activity [55]: 56.09% | Activity [56]: 54.32% | Activity [57]: 67.72% | Activity [58]: 89.12% | Activity [59]: 60.45% | Activity [60]: 74.89% | MIC [61]: 500 µg/mL (≈ 935 µM) | Activity [62]: 36.96% | Activity [63]: 62.81% | Activity [64]: 23.05% | Activity [65]: 60.49% | MIC [66]: 250 µg/mL (≈ 468 µM) | MIC [67]: 125 µg/mL (≈ 234 µM) | Activity [68]: 69.86% | zone of inhibition at 250 µg/mL [69]: 24 mm | zone of inhibition at 250 µg/mL [70]: 21 mm | Activity [71]: 4.71%
